Measured values from patent publication US6706663B2, “Herbicidal 3-heterocyclic substituted benzisothiazole and benzisoxazole compounds” (Wyeth, priority 2000, dated 2004).

What was measured:
[1] = tested on: ECHCG (Echinochloa crus-galli); test: Postemergence herbicidal evaluation; assay type: in vivo, (L.) Beau; settings: postemergence
Procedure, shortened: (§1)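 Seedlings grown for about two weeks were sprayed postemergence and then kept under standard greenhouse care. Injury was rated visually 4–5 weeks after treatment on a 0–9 scale against untreated controls, and ratings from repeat tests were averaged.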

[2] = tested on: ABUTH (Abutilon theophrasti); test: Preemergence herbicidal evaluation; assay type: in vivo, Medic.; settings: rated 4-5 weeks after treatment
[3] = tested on: ECHORC (Echinochloa oryzoides); test: Flooded paddy, preemergence weed control; assay type: in vivo, Echinochloa oryzoides (Ard.) Fritsch.; settings: rated 3-4 weeks after treatment, 0-9 rating scale
Procedure, shortened: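 Seeds or propagating organs were sown in the top 0.5 cm of silt loam soil, flooded, and the water kept 1.5 to 3 cm above the soil surface throughout. Plants were grown in the greenhouse and rated visually on a 0-9 scale against a control.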

[4] = tested on: CYPSE (Cyperus serotinus); test: Flooded paddy, postemergence weed control; assay type: in vivo, Rottb.; settings: postemergence weeds, rated 3-4 weeks after treatment
Procedure, shortened: (§2)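 Visual 0-9 score (stand, vigor, malformation, size, chlorosis, overall appearance vs untreated control) taken 3-4 wk post-treatment. Weeds 3-5 cm, rice 1.5-2.5 leaf stage, flood 1.5-3 cm; compound into flood water, ~0.0320-0.2500 kg/ha, aqueous/acetone 50/50 v/v.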

[5] = tested on: GLXMAW (Soybean, Williams); test: Preemergence herbicidal evaluation; assay type: in vivo, Glycine max, (L.) Merr. cv Williams; settings: rated 4-5 weeks after treatment
CYPIR (Cyperus iria) = test: Flooded paddy, postemergence weed control; assay type: in vivo; settings: postemergence weeds, rated 3-4 weeks after treatment
Procedure, shortened: as §2

ZEAMX (Corn, Field) [6] = test: Postemergence herbicidal evaluation; assay type: in vivo, Zea mays, L.; settings: postemergence
Procedure, shortened: as §1

[7] = tested on: SAGPY (Sagittaria pygmaea); test: Flooded paddy, postemergence weed control; assay type: in vivo, L.; settings: postemergence weeds, rated 3-4 weeks after treatment
Procedure, shortened: as §2

[8] = tested on: TRZAWR (Wheat, Winter, cv Riband); test: Preemergence herbicidal evaluation; assay type: in vivo, Triticum aestivum; settings: rated 4-5 weeks after treatment
Procedure, shortened: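 Greenhouse preemergence test: freshly planted cups were sprayed once with an aqueous acetone solution of compound. Injury was judged visually on a 0–9 scale relative to a control, four to five weeks later.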

ORYSAT (Rice, Tebonnet) [9] = test: Flooded paddy, post-transplant and postemergence rice tolerance; assay type: in vivo, Oryza sativa, (L.) Tebonnet; settings: post-transplant rice, rated 3-4 weeks after treatment
Procedure, shortened: as §2

[10] = tested on: GLXMAW (Soybean, Williams); test: Postemergence herbicidal evaluation; assay type: in vivo, Glycine max, (L.) Merr. cv Williams; settings: postemergence
Procedure, shortened: as §1

[11] = tested on: MOOVA (Monochoria vaginalis); test: Flooded paddy, postemergence weed control; assay type: in vivo, Presl.; settings: postemergence weeds, rated 3-4 weeks after treatment
Procedure, shortened: as §2

ZEAMX (Corn, Field) [12] = test: Preemergence herbicidal evaluation; assay type: in vivo, Zea mays, L.; settings: rated 4-5 weeks after treatment
[13] = tested on: ECHORC (Echinochloa oryzoides); test: Flooded paddy, postemergence weed control; assay type: in vivo, Echinochloa oryzoides (Ard.) Fritsch.; settings: postemergence weeds, rated 3-4 weeks after treatment
Procedure, shortened: as §2

ORYSAT (Rice, Tebonnet) [14] = test: Flooded paddy, post-transplant rice tolerance; assay type: in vivo, Oryza sativa, (L.) Tebonnet; settings: flooded paddy, post-transplant rice, rated 3-4 weeks after treatment, 0-9 rating scale
Procedure, shortened: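 Ten-day-old seedlings, 2/pot, silt loam; flood kept 1.5–3 cm over soil; herbicide applied post-transplant; greenhouse; score 0–9 visual vs control.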

[15] = tested on: IPOHE (Ipomoea hederacea); test: Preemergence herbicidal evaluation; assay type: in vivo, (L.) Jacq.; settings: rated 4-5 weeks after treatment

Cn1c(C(F)(F)F)cc(=O)n(-c2ccc3snc(-c4nccs4)c3c2)c1=O [Compound 53, 1-methyl-3-[3-(2-thiazolyl)-1,2-benzisothiazol-5-yl]-6-(trifluoromethyl)uracil]
3.5: Preemergence herbicidal rating TRZAWR ([8]; Rate 0.1250 kg/ha)
2.5: Preemergence herbicidal rating GLXMAW ([5]; Rate 0.1250 kg/ha)
6.0: herbicide rating (0-9) ORYSAT (rice tolerance) (ORYSAT (Rice, Tebonnet) [9]; 0.1250 kg/ha into flood water)
8.0: herbicide rating (0-9) CYPSE ([4]; 0.0620 kg/ha into flood water) | herbicide rating (0-9) CYPSE ([4]; 0.1250 kg/ha into flood water) | GLXMAW herbicidal rating ([10]; rate 0.1250 kg/ha) | herbicide rating (0-9) ECHORC ([13]; 0.1250 kg/ha into flood water) | Preemergence herbicidal rating IPOHE ([15]; Rate 0.2500 kg/ha)
7.0: herbicide rating (0-9) CYPIR (CYPIR (Cyperus iria); 0.1250 kg/ha into flood water) | Preemergence herbicidal rating ZEAMX (ZEAMX (Corn, Field) [12]; Rate 0.2500 kg/ha) | herbicide rating (0-9) ECHORC ([13]; 0.0620 kg/ha into flood water)
4.5: ZEAMX herbicidal rating (ZEAMX (Corn, Field) [6]; rate 0.0320 kg/ha)
6.8: GLXMAW herbicidal rating ([10]; rate 0.0320 kg/ha)
8.3: GLXMAW herbicidal rating ([10]; rate 0.0620 kg/ha)
0.5: herbicidal rating, ORYSAT (rice tolerance) (ORYSAT (Rice, Tebonnet) [14]; rate 0.0080 kg/ha)
5.5: ZEAMX herbicidal rating (ZEAMX (Corn, Field) [6]; rate 0.1250 kg/ha)
2.7: herbicidal rating, ORYSAT (rice tolerance) (ORYSAT (Rice, Tebonnet) [14]; rate 0.0320 kg/ha)
4.0: herbicide rating (0-9) ORYSAT (rice tolerance) (ORYSAT (Rice, Tebonnet) [9]; 0.0620 kg/ha into flood water) | Preemergence herbicidal rating ZEAMX (ZEAMX (Corn, Field) [12]; Rate 0.0620 kg/ha)
6.5: Preemergence herbicidal rating GLXMAW ([5]; Rate 0.2500 kg/ha)
2.0: ECHCG herbicidal rating ([1]; rate 0.0620 kg/ha) | herbicide rating (0-9) ORYSAT (rice tolerance) (ORYSAT (Rice, Tebonnet) [9]; 0.0320 kg/ha into flood water) | herbicide rating (0-9) MOOVA ([11]; 0.1250 kg/ha into flood water) | herbicide rating (0-9) ECHORC ([13]; 0.0320 kg/ha into flood water)
7.5: Preemergence herbicidal rating ABUTH ([2]; Rate 0.1250 kg/ha)
9.0: Preemergence herbicidal rating ABUTH ([2]; Rate 0.2500 kg/ha) | herbicidal rating, ECHORC ([3]; rate 0.0320 kg/ha) | herbicidal rating, ECHORC ([3]; rate 0.1250 kg/ha)
5.0: Preemergence herbicidal rating ABUTH ([2]; Rate 0.0620 kg/ha) | ZEAMX herbicidal rating (ZEAMX (Corn, Field) [6]; rate 0.0620 kg/ha) | Preemergence herbicidal rating TRZAWR ([8]; Rate 0.2500 kg/ha) | Preemergence herbicidal rating ZEAMX (ZEAMX (Corn, Field) [12]; Rate 0.1250 kg/ha) | herbicidal rating, ORYSAT (rice tolerance) (ORYSAT (Rice, Tebonnet) [14]; rate 0.1250 kg/ha)
3.0: herbicidal rating, ECHORC ([3]; rate 0.0080 kg/ha) | Preemergence herbicidal rating IPOHE ([15]; Rate 0.1250 kg/ha)
0.0: herbicide rating (0-9) CYPSE ([4]; 0.0320 kg/ha into flood water) | herbicide rating (0-9) CYPIR (CYPIR (Cyperus iria); 0.0320 kg/ha into flood water) | herbicide rating (0-9) SAGPY ([7]; 0.0320 kg/ha into flood water) | herbicide rating (0-9) SAGPY ([7]; 0.0620 kg/ha into flood water) | herbicide rating (0-9) SAGPY ([7]; 0.1250 kg/ha into flood water) | herbicide rating (0-9) MOOVA ([11]; 0.0320 kg/ha into flood water) | herbicide rating (0-9) MOOVA ([11]; 0.0620 kg/ha into flood water)
1.0: ECHCG herbicidal rating ([1]; rate 0.0320 kg/ha) | ECHCG herbicidal rating ([1]; rate 0.1250 kg/ha) | Preemergence herbicidal rating GLXMAW ([5]; Rate 0.0620 kg/ha) | Preemergence herbicidal rating TRZAWR ([8]; Rate 0.0620 kg/ha) | Preemergence herbicidal rating IPOHE ([15]; Rate 0.0620 kg/ha)

Cn1c(C(F)(F)F)cc(=O)n(-c2cc3c(C4OCCO4)nsc3cc2F)c1=O [Compound 61, 3-[3-(1,3-dioxolan-2-yl)-6-fluoro-1,2-benzisothiazol-5-yl]-1-methyl-6-(trifluoromethyl)uracil]
5.0: ECHCG herbicidal rating ([1]; rate 0.0320 kg/ha)
8.3: Preemergence herbicidal rating ZEAMX (ZEAMX (Corn, Field) [12]; Rate 0.0160 kg/ha)
3.0: ECHCG herbicidal rating ([1]; rate 0.0620 kg/ha)
8.7: herbicidal rating, ECHORC ([3]; rate 0.0080 kg/ha)
8.0: herbicide rating (0-9) SAGPY ([7]; 0.0620 kg/ha into flood water) | herbicidal rating, ORYSAT (rice tolerance) (ORYSAT (Rice, Tebonnet) [14]; rate 0.0080 kg/ha)
9.0: Preemergence herbicidal rating ABUTH ([2]; Rate 0.0160 kg/ha) | Preemergence herbicidal rating ABUTH ([2]; Rate 0.0320 kg/ha) | herbicidal rating, ECHORC ([3]; rate 0.0320 kg/ha) | herbicidal rating, ECHORC ([3]; rate 0.1250 kg/ha) | herbicide rating (0-9) CYPSE ([4]; 0.0320 kg/ha into flood water) | herbicide rating (0-9) CYPSE ([4]; 0.0620 kg/ha into flood water) | herbicide rating (0-9) CYPSE ([4]; 0.1250 kg/ha into flood water) | Preemergence herbicidal rating GLXMAW ([5]; Rate 0.0160 kg/ha) | Preemergence herbicidal rating GLXMAW ([5]; Rate 0.0320 kg/ha) | herbicide rating (0-9) CYPIR (CYPIR (Cyperus iria); 0.0320 kg/ha into flood water) | herbicide rating (0-9) CYPIR (CYPIR (Cyperus iria); 0.0620 kg/ha into flood water) | herbicide rating (0-9) CYPIR (CYPIR (Cyperus iria); 0.1250 kg/ha into flood water) | herbicide rating (0-9) SAGPY ([7]; 0.1250 kg/ha into flood water) | Preemergence herbicidal rating TRZAWR ([8]; Rate 0.0320 kg/ha) | herbicide rating (0-9) ORYSAT (rice tolerance) (ORYSAT (Rice, Tebonnet) [9]; 0.0320 kg/ha into flood water) | herbicide rating (0-9) ORYSAT (rice tolerance) (ORYSAT (Rice, Tebonnet) [9]; 0.0620 kg/ha into flood water) | herbicide rating (0-9) ORYSAT (rice tolerance) (ORYSAT (Rice, Tebonnet) [9]; 0.1250 kg/ha into flood water) | GLXMAW herbicidal rating ([10]; rate 0.0320 kg/ha) | herbicide rating (0-9) MOOVA ([11]; 0.0320 kg/ha into flood water) | herbicide rating (0-9) MOOVA ([11]; 0.0620 kg/ha into flood water) | herbicide rating (0-9) MOOVA ([11]; 0.1250 kg/ha into flood water) | Preemergence herbicidal rating ZEAMX (ZEAMX (Corn, Field) [12]; Rate 0.0320 kg/ha) | herbicide rating (0-9) ECHORC ([13]; 0.0320 kg/ha into flood water) | herbicide rating (0-9) ECHORC ([13]; 0.0620 kg/ha into flood water) | herbicide rating (0-9) ECHORC ([13]; 0.1250 kg/ha into flood water) | herbicidal rating, ORYSAT (rice tolerance) (ORYSAT (Rice, Tebonnet) [14]; rate 0.0320 kg/ha) | herbicidal rating, ORYSAT (rice tolerance) (ORYSAT (Rice, Tebonnet) [14]; rate 0.1250 kg/ha) | Preemergence herbicidal rating IPOHE ([15]; Rate 0.0160 kg/ha) | Preemergence herbicidal rating IPOHE ([15]; Rate 0.0320 kg/ha)
6.0: herbicide rating (0-9) SAGPY ([7]; 0.0320 kg/ha into flood water)
8.5: Preemergence herbicidal rating TRZAWR ([8]; Rate 0.0160 kg/ha)
0.0: Preemergence herbicidal rating ABUTH ([2]; Rate 0.0002 kg/ha) | Preemergence herbicidal rating GLXMAW ([5]; Rate 0.0002 kg/ha) | Preemergence herbicidal rating TRZAWR ([8]; Rate 0.0002 kg/ha) | Preemergence herbicidal rating ZEAMX (ZEAMX (Corn, Field) [12]; Rate 0.0002 kg/ha) | Preemergence herbicidal rating IPOHE ([15]; Rate 0.0002 kg/ha)
5.5: ZEAMX herbicidal rating (ZEAMX (Corn, Field) [6]; rate 0.0320 kg/ha) | ZEAMX herbicidal rating (ZEAMX (Corn, Field) [6]; rate 0.0620 kg/ha)
